Measurements as given in EP0856511B1, “Calcium salt of indomethacin pentahydrate and its preparation” (Promindus (Actions Promotionnelles dans l'Industrie et le …, priority 1997, dated 1998).

Tests used:
[1] = in vivo
[2] = Solubility description in water and organic solvents; format: physicochemical
[3] = Effective dose 50 % (DE50) per os in the rat; format: in vivo
Source text: (§1) En effet, les comparaisons respectives des DE50 (dose efficace 50 %) et DL50 (dose léthale 50 %) per os, chez le rat, de ladite indométacine calcique pentahydratée et de ladite indométacine libre sont nettement à l'avantage de ladite indométacine calcique.

[4] = Lethal dose 50 % (DL50) per os in the rat; format: in vivo
Source text: as §1

| Molecule | tolérance locale par voie rectale [1] | solubilité dans l'acétonitrile [2] | solubilité dans l'eau [2] | solubilité dans l'éther [2] | solubilité dans le chloroforme ([2]; chloroforme) | solubilité dans le diméthylformamide ([2]; diméthylformamide) | solubilité dans le tétrahydrofuranne ([2]; tétrahydrofuranne) | activité pharmacologique ([3]; compared with the acid form) | DE50 ([3]; dose efficace 50 %, per os, rat) | DL50 ([4]; dose léthale 50 %, per os, rat) | toxicité par voie orale ([4]; par voie orale, compared with the acid form) | Index thérapeutique : DL50/DE50 ([4]; per os, rat, ratio DL50/DE50) | ED50 ([3]; po, dose efficace 50 %, per os, rat) | LD50 ([4]; in vivo, po, dose léthale 50 %, per os, rat) |
| --- | --- | --- | --- | --- | --- | --- | --- | --- | --- | --- | --- | --- | --- | --- |
| indométacine calcique pentahydratée | une meilleure tolérance locale | pratiquement insoluble | pratiquement insoluble | pratiquement insoluble | pratiquement insoluble | facilement soluble | soluble | équivalente | 2,5 mg/kg | 45 mg/kg | une toxicité diminuée | 18 |  |  |
| COc1ccc2c(c1)c(CC(=O)O)c(C)n2C(=O)c1ccc(Cl)cc1 [Indométacine, acide 1-(p-chlorobenzoyl)-5-méthoxy-2-méthylindole-3-acétique, reference compound] |  |  |  |  |  |  |  |  |  |  |  |  | 3 mg/kg | 28 mg/kg |
